Values quoted from earlier work as cited in patent publication US9622981B2, “Liquid-filled hard gel capsule pharmaceutical formulations” (Mylan Inc., priority 2011, dated 2017).

How the values were obtained:
[1] = not given; remark: listed apart in the source
[2] = ordinary conditions

For `C[C@]12C=CC(=O)N[C@@H]1CC[C@@H]1[C@@H]2CC[C@]2(C)[C@@H](C(=O)Nc3cc(C(F)(F)F)ccc3C(F)(F)F)CC[C@@H]12` [Dutasteride, (5α,17β)-N-[2,5 bis(trifluoromethyl)phenyl]-3-oxo-4-azaandrost-1-ene-17-carboxamide], the solubility in water is listed as “insoluble”, the “partition coefficient, Log P” value [1] is listed as 5.609±0.618 and the stability [2] is listed as “stable under ordinary conditions”.
